Common to all, as to format: functional
The test system of test [1] is T47D. Kind of test: Cytotoxicity against Homo sapiens (human) T47D cells assessed as cellular growth at 10^-5 M after 48 hr by SRB assay relative to untreated control.
For test [2], the system named is SR. Nature of the test: Cytotoxicity against Homo sapiens (human) SR cells assessed as cellular growth at 10^-5 M after 48 hr by SRB assay relative to untreated control. In general terms: The SRB assay estimates cell density from bound dye.
Test [3] deals with PC-3. Nature of the test: Cytotoxicity against Homo sapiens (human) PC3 cells assessed as cellular growth at 10^-5 M after 48 hr by SRB assay relative to untreated control.
For test [4], the system named is CCRF-CEM. Nature of the test: Cytotoxicity against Homo sapiens (human) CCRF-CEM cells assessed as cellular growth at 10^-5 M after 48 hr by SRB assay relative to untreated control.
The subject of test [5] is BT-549. Nature of the test: Cytotoxicity against Homo sapiens (human) BT549 cells assessed as cellular growth at 10^-5 M after 48 hr by SRB assay relative to untreated control.
In test [6] the test system is SF-295. Nature of the test: Cytotoxicity against Homo sapiens (human) SF295 cells assessed as cellular growth at 10^-5 M after 48 hr by SRB assay relative to untreated control.
Test [7] concerns IGROV-1. Kind of test: Cytotoxicity against Homo sapiens (human) IGROV1 cells assessed as cellular growth at 10^-5 M after 48 hr by SRB assay relative to untreated control.
For test [8], the system named is K562. Kind of test: Cytotoxicity against Homo sapiens (human) K562 cells assessed as cellular growth at 10^-5 M after 48 hr by SRB assay relative to untreated control.
The subject of test [9] is HL-60(TB). Nature of the test: Cytotoxicity against Homo sapiens (human) HL-60(TB) cells assessed as cellular growth at 10^-5 M after 48 hr by SRB assay relative to untreated control.
The test system of test [10] is RPMI-8226. Nature of the test: Cytotoxicity against Homo sapiens (human) RPMI8226 cells assessed as cellular growth at 10^-5 M after 48 hr by SRB assay relative to untreated control.
Test [11] concerns COLO 205. Nature of the test: Cytotoxicity against Homo sapiens (human) COLO205 cells assessed as cellular growth at 10^-5 M after 48 hr by SRB assay relative to untreated control.
Test [12] relates to SK-OV-3. Nature of the test: Cytotoxicity against Homo sapiens (human) SKOV3 cells assessed as cellular growth at 10^-5 M after 48 hr by SRB assay relative to untreated control.

From ChEMBL document CHEMBL3045033, “Synthesis of new potential anticancer agents based on 4-thiazolidinone and oleanane scaffolds” (Med Chem Res, 2012) come the findings set out here.

As for `COC(=O)[C@]12CCC(C)(C)C[C@H]1C1=CC[C@@H]3[C@@]4(C)CCC(=O)C(C)(C)[C@@H]4CC[C@@]3(C)[C@]1(C)CC2`, the figures for the Activity in [1], in [2] and in [3] were 75.65%, 63.87% and 85.25%, respectively.
On to `COC(=O)[C@]12CCC(C)(C)C[C@H]1C1=CC[C@@H]3[C@@]4(C)CC/C(=N\OC(=O)CN5C(=O)CSC5=S)C(C)(C)[C@@H]4CC[C@@]3(C)[C@]1(C)CC2`, for which the Activity in test [4] is on record as 56.34%.
On to `COC(=O)[C@]12CCC(C)(C)C[C@H]1C1=CC[C@@H]3[C@@]4(C)CC/C(=N\OC(=O)CCCCCN5C(=O)CSC5=S)C(C)(C)[C@@H]4CC[C@@]3(C)[C@]1(C)CC2`, for which the figures for the Activity in test [1] and in test [2] were 76.91% and 42.83%, respectively.
`COC(=O)[C@]12CCC(C)(C)C[C@H]1C1=CC[C@@H]3[C@@]4(C)CC/C(=N\OC(=O)CN5C(=O)/C(=C/c6ccc(OC)cc6)SC5=S)C(C)(C)[C@@H]4CC[C@@]3(C)[C@]1(C)CC2`: the Activity in [5] was determined as 67.36%; in [6], 72.97%.
`COC(=O)[C@]12CCC(C)(C)C[C@H]1C1=CC[C@@H]3[C@@]4(C)CC/C(=N\OC(=O)CCN5C(=O)/C(=C/c6ccc(N(C)C)cc6)SC5=S)C(C)(C)[C@@H]4CC[C@@]3(C)[C@]1(C)CC2`: the Activity in [7] was 82.21%.
`CC1(C)CC[C@]2(C(=O)O)CC[C@]3(C)C(=CC[C@@H]4[C@@]5(C)CC/C(=N\OC(=O)CC6SC(=O)NC6=O)C(C)(C)[C@@H]5CC[C@]43C)[C@@H]2C1` (some centres undefined): the Activity in test [8] stood at 54.55%; in test [2], 54.18%.
For `CC1(C)CC[C@]2(C(=O)N3CCOCC3)CC[C@]3(C)C(=CC[C@@H]4[C@@]5(C)CC/C(=N\OC(=O)CC6SC(=O)NC6=O)C(C)(C)[C@@H]5CC[C@]43C)[C@@H]2C1` (some centres undefined), the Activity in test [9] is recorded as 42.47%; in test [10], 21.46%; in test [1] it was 29.41%; in [2] it was 48.74%.
In the case of `CC1(C)CC[C@@]23CC[C@]4(C)[C@@](OC2=O)([C@@H]3C1)[C@@H](Br)C[C@@H]1[C@@]2(C)CC/C(=N\OC(=O)/C=C3/SC(=O)NC3=O)C(C)(C)[C@@H]2CC[C@]14C`, the Activity in [9] is recorded as 26.14%; in test [10], 26.82%; in test [1] it was 24.85%; in test [8] it was 27.12%; in [2] it was 29.41%.
As to `CC1(C)CC[C@@]23CC[C@]4(C)[C@@](OC2=O)([C@@H]3C1)[C@@H](Br)C[C@@H]1[C@@]2(C)CCC(=O)C(C)(C)[C@@H]2CC[C@]14C`, the Activity in test [11] was found to be 302.68%; in [6] it was 270.75%; in test [12], 335.31%; in test [8], 78.11%.
